Results taken from PubChem BioAssay AID248 (DTP/NCI, 2004).
Where “and” joins values, the source holds several entries; their conditions need not be identical. Equal entries are not always repeated. Toxic doses and inconclusive results are not listed. Cut-off read from the data, not from the text of the source: active = T/C of 150% or more; inactive = T/C below 125%.

Test system: L1210 leukemia ip in BDF1 mice, survival T/C
Experiment: NCI In Vivo Anticancer Drug Screen. Data for tumor model L1210 Leukemia (intraperitoneal) in B6D2F1 (BDF1) mice
Details: endpoint: mean survival time, higher = longer survival
Outline: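 Survival endpoint. Drug-treated group vs vehicle group, expressed as T divided by C. Tumor passaged by transplantation.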

[1] = dose: 50.0 mg/kg/injection, schedule: Q01DX001 (ip), vehicle: saline
[2] = dose: 50.0 mg/kg/injection, schedule: Q01DX009 (ip), vehicle: saline
[3] = dose: 100.0 mg/kg/injection, schedule: Q01DX001 (ip), vehicle: saline
[4] = dose: 200.0 mg/kg/injection, schedule: Q01DX001 (ip), vehicle: saline
[5] = dose: 400.0 mg/kg/injection, schedule: Q01DX001 (ip), vehicle: saline
[6] = dose: 50.0 mg/kg/injection, schedule: Q04DX003 (ip), vehicle: saline
[7] = dose: 100.0 mg/kg/injection, schedule: Q01DX009 (ip), vehicle: saline
[8] = dose: 100.0 mg/kg/injection, schedule: Q04DX003 (ip), vehicle: saline
[9] = dose: 200.0 mg/kg/injection, schedule: Q01DX009 (ip), vehicle: saline
[10] = dose: 200.0 mg/kg/injection, schedule: Q04DX003 (ip), vehicle: saline
[11] = dose: 100.0 mg/kg/injection, schedule: Q04DX003 (ip), vehicle: saline with Tween-80
[12] = dose: 400.0 mg/kg/injection, schedule: Q04DX003 (ip), vehicle: saline
[13] = dose: 100.0 mg/kg/injection, schedule: Q01DX001 (ip), vehicle: carboxymethylcellulose (CMC)
[14] = dose: 200.0 mg/kg/injection, schedule: Q01DX001 (ip), vehicle: carboxymethylcellulose (CMC)
[15] = dose: 400.0 mg/kg/injection, schedule: Q01DX001 (ip), vehicle: carboxymethylcellulose (CMC)
[16] = dose: 100.0 mg/kg/injection, schedule: Q04DX003 (ip), vehicle: Klucel (hydroxypropylcellulose) (HPC)
[17] = dose: 200.0 mg/kg/injection, schedule: Q04DX003 (ip), vehicle: Klucel (hydroxypropylcellulose) (HPC)
[18] = dose: 400.0 mg/kg/injection, schedule: Q04DX003 (ip), vehicle: Klucel (hydroxypropylcellulose) (HPC)

Measured: T/C

NC(=S)N/N=C\c1ncnc2ccccc12
inactive: dose: 2.1 mg/kg/injection, schedule: Q03HX032 (ip), vehicle: saline with Tween-80 101 % of control | dose: 3.2 mg/kg/injection, schedule: Q03HX032 (ip), vehicle: saline with Tween-80 107 % of control | dose: 4.8 mg/kg/injection, schedule: Q03HX032 (ip), vehicle: saline with Tween-80 118 % of control | dose: 6.25 mg/kg/injection, schedule: Q01DX009 (ip), vehicle: saline 115 % of control | dose: 7.2 mg/kg/injection, schedule: Q03HX032 (ip), vehicle: saline with Tween-80 91 % of control | [1] 100 % of control | [2] 117 % of control | [3] 112 % of control | [4] 118 % of control | [5] 112 % of control

CNS(=O)(=O)c1ccccc1C(=N)c1ccccc1
inactive: [3] 97 % of control | [4] 97 % of control | [5] 100 % of control

COC1C(OC(=O)/C=C/C=C/C=C/C=C/C(=O)O)CCC2(CO2)C1C1(C)OC1CC=C(C)C (centres undefined)
inactive: dose: 2.5 mg/kg/injection, schedule: Q01DX Z (ip), vehicle: methylcellulose (MC) 115 % of control | dose: 5.0 mg/kg/injection, schedule: Q01DX Z (ip), vehicle: methylcellulose (MC) 110 % of control | dose: 10.0 mg/kg/injection, schedule: Q01DX Z (ip), vehicle: methylcellulose (MC) 115 % of control | dose: 10.0 mg/kg/injection, schedule: Q01DX Z (ip), vehicle: saline 109 % of control | dose: 20.0 mg/kg/injection, schedule: Q01DX Z (ip), vehicle: methylcellulose (MC) 118 % of control | dose: 20.0 mg/kg/injection, schedule: Q01DX Z (ip), vehicle: saline 115 % of control | dose: 40.0 mg/kg/injection, schedule: Q01DX Z (ip), vehicle: methylcellulose (MC) 121 % of control | dose: 40.0 mg/kg/injection, schedule: Q01DX Z (ip), vehicle: saline 123 % of control | [2] 101 % of control | [6] 116 % of control | dose: 80.0 mg/kg/injection, schedule: Q01DX Z (ip), vehicle: saline 120 % of control | [3] 93 % of control | [7] 101 % of control | [8] 93 % of control | [4] 93 % of control | [9] 106 % of control | [10] 98 % of control

O=C(O)COc1nc(Cl)c(Cl)cc1Cl
inactive: dose: 100.0 mg/kg/injection, schedule: Q04DX002 (ip), vehicle: Klucel (hydroxypropylcellulose) (HPC) 107 % of control | dose: 200.0 mg/kg/injection, schedule: Q04DX002 (ip), vehicle: Klucel (hydroxypropylcellulose) (HPC) 104 % of control

Nc1ncnc2c1ncn2C(/C=N/Nc1ccccc1)OC(/C=N\Nc1ccccc1)CO (centres undefined)
inactive: dose: 100.0 mg/kg/injection, schedule: Q01DX001 (ip), vehicle: other 106 % of control | dose: 200.0 mg/kg/injection, schedule: Q01DX001 (ip), vehicle: other 108 % of control

Nc1cccc2cc3ccccc3[n+]([O-])c12
inactive: dose: 100.0 mg/kg/injection, schedule: Q01DX009 (ip), vehicle: saline with Tween-80 103 % of control | dose: 200.0 mg/kg/injection, schedule: Q01DX009 (ip), vehicle: saline with Tween-80 103 % of control | dose: 400.0 mg/kg/injection, schedule: Q01DX009 (ip), vehicle: saline with Tween-80 93 % of control

O=C(CC(O)(C(F)(F)F)C(F)(F)F)c1ccccc1Cl
inactive: [11] 97 % of control | dose: 200.0 mg/kg/injection, schedule: Q04DX003 (ip), vehicle: saline with Tween-80 101 % of control | dose: 400.0 mg/kg/injection, schedule: Q04DX003 (ip), vehicle: saline with Tween-80 101 % of control

OCC[S+](CCO)CCO
inactive: [8] 105 % of control | [10] 102 % of control | [12] 104 % of control

Nc1ccc(OCCNC(=O)c2ccc(S(=O)(=O)F)cc2)c(Cl)c1
inactive: dose: 100.0 mg/kg/injection, schedule: Q01DX001 (ip), vehicle: saline with Tween-80 94 % of control | dose: 200.0 mg/kg/injection, schedule: Q01DX001 (ip), vehicle: saline with Tween-80 89 % of control | dose: 400.0 mg/kg/injection, schedule: Q01DX001 (ip), vehicle: saline with Tween-80 96 % of control

O=C(Nc1cnc2ccccc2c1)Nc1cnc2ccccc2c1
inactive: dose: 87.5 mg/kg/injection, schedule: Q01DX009 (ip), vehicle: Klucel (hydroxypropylcellulose) (HPC) 87 % of control | dose: 175.0 mg/kg/injection, schedule: Q01DX009 (ip), vehicle: Klucel (hydroxypropylcellulose) (HPC) 97 % of control | dose: 350.0 mg/kg/injection, schedule: Q01DX009 (ip), vehicle: Klucel (hydroxypropylcellulose) (HPC) 89 % of control

O=C(Nc1ccc(O)cc1)Sc1ccccc1
inactive: dose: 75.0 mg/kg/injection, schedule: Q01DX001 (ip), vehicle: gum acacia 107 % of control

S=C(NCCNC(=S)[S][Sn]([c]1ccccc1)([c]1ccccc1)[c]1ccccc1)[S][Sn]([c]1ccccc1)([c]1ccccc1)[c]1ccccc1
inactive: dose: 4.0 mg/kg/injection, schedule: Q01DX015 (ip), vehicle: carboxymethylcellulose (CMC) 97 % of control | dose: 8.0 mg/kg/injection, schedule: Q01DX015 (ip), vehicle: carboxymethylcellulose (CMC) 97 % of control | dose: 16.0 mg/kg/injection, schedule: Q01DX015 (ip), vehicle: carboxymethylcellulose (CMC) 94 % of control | dose: 25.0 mg/kg/injection, schedule: Q01DX009 (ip), vehicle: saline with Tween-80 92 % of control | dose: 32.0 mg/kg/injection, schedule: Q01DX015 (ip), vehicle: carboxymethylcellulose (CMC) 94 % of control and 104 % of control | dose: 50.0 mg/kg/injection, schedule: Q01DX009 (ip), vehicle: saline with Tween-80 91 % of control | dose: 64.0 mg/kg/injection, schedule: Q01DX015 (ip), vehicle: carboxymethylcellulose (CMC) 112 % of control | [13] 100 % of control | [11] 96 % of control | [14] 100 % of control | [15] 102 % of control

NC1CCC(O)CC1 (centres undefined)
inactive: [3] 110 % of control | [4] 97 % of control | [5] 97 % of control

CC(=O)Nc1nc(NC(C)=O)c2nc(CCN(C)c3ccc(C(=O)O)cc3)cnc2n1
inactive: dose: 75.0 mg/kg/injection, schedule: Q01DX001 (ip), vehicle: saline 106 % of control | [16] 95 % of control | dose: 150.0 mg/kg/injection, schedule: Q01DX001 (ip), vehicle: saline 101 % of control | [17] 95 % of control | dose: 300.0 mg/kg/injection, schedule: Q01DX001 (ip), vehicle: saline 101 % of control | [18] 100 % of control

COC(=O)c1nc[nH]c1C(=O)OC
inactive: [8] 112 % of control | [10] 93 % of control | [12] 109 % of control

N#CC1CC(c2ccccc2)Nc2ccccc2N1 (centres undefined)
inactive: [16] 94 % of control | [17] 98 % of control | [18] 96 % of control

O=C1NC(=O)C(c2ccco2)N1 (centres undefined)
inactive: [16] 105 % of control | [17] 103 % of control | [18] 114 % of control

CN(C(=O)OCc1ccccc1)c1ccc(C(=O)NC(CCC(=O)O)C(=O)O)cc1 (centres undefined)
inactive: [13] 94 % of control | [14] 102 % of control | [15] 96 % of control

N[C@@H](Cc1ccc(O)c(O)c1)C(=O)O
inactive: dose: 25.0 mg/kg/injection, schedule: Q01DX009 (ip), vehicle: saline 101 % of control | dose: 25.0 mg/kg/injection, schedule: Q04DX003 (ip), vehicle: saline 94 % of control | [1] 87 % of control | [2] 100 % of control and 105 % of control | [6] 103 % of control and 105 % of control | [3] 94 % of control | [7] 92 % of control and 97 % of control | [8] 110 % of control | [4] 113 % of control | [9] 97 % of control and 105 % of control | [10] 98 % of control and 105 % of control | [5] 94 % of control | dose: 400.0 mg/kg/injection, schedule: Q01DX009 (ip), vehicle: saline 108 % of control and 112 % of control | [12] 94 % of control and 97 % of control

C=CS(=O)(=O)CC
inactive: dose: 25.0 mg/kg/injection, schedule: Q04DX002 (ip), vehicle: saline 119 % of control | dose: 50.0 mg/kg/injection, schedule: Q04DX002 (ip), vehicle: saline 102 % of control | dose: 100.0 mg/kg/injection, schedule: Q04DX002 (ip), vehicle: saline 102 % of control
